Data: patent publication US7691805B2, “Antimicrobial compounds” (Neobiotics AB, priority 2004, dated 2010)
In brackets after ≈: the same amount, converted by molar mass.

Tests used:
[1] = system: Aspergillus niger ATCC 16404; test: Antifungal MIC in Sabouraud broth; assay type: cell-based; details: 25° C. for 7 days; inoculum 10^3-10^4 cfu/ml
Description: (§1) The minimal inhibitory concentration (MIC) was determined using a method with Sabouraud broth (Becton Dickinson) and an initial inoculum 10^3-10^4 cfu/ml. Polypropylene 96-well plates (Nunc) were incubated at 25° C. for 48 h (for Candida albicans ATCC 10231) or 7 days (for Aspergillus niger ATCC 16404). The MIC was taken as the lowest drug concentration at which noticeable growth was inhibited. The experiments were performed in duplicate.

[2] = system: Candida albicans ATCC 10231; test: Antifungal MIC in Sabouraud broth; assay type: cell-based; details: 25° C. for 48 h; inoculum 10^3-10^4 cfu/ml
Description: as §1

S.aureus = test: MIC by broth dilution; assay type: cell-based; details: growth media without DMSO
Description: (§2) MIC/MBC determinations were performed by broth dilution according to established procedures, well known for a person skilled in the art.

GAS = test: MIC by broth dilution; assay type: cell-based, group A Streptococci; details: growth media without DMSO
Description: as §2

Solubility = assay type: physicochemical; details: KCl gradient eluent during ion exchange isolation
streptococcal challenge = test: Lethal streptococcal challenge in the mouse; assay type: in vivo
labial herpes = test: Topical application in softening cream to a beginning labial herpes outbreak; assay type: in vivo, human; details: 0.2 ml solution (0.1 g/l) in softening cream on the lip; performed twice
Description: Cp1 was added to a softening cream and 0.2 ml solution (0.1 g/l) was applied to an area of a beginning labial herpes outbreak on the lip of a person. After 3-4 hours the symptoms was gone. The experiment was performed twice.

[3] = system: Staphylococci incl. multiresistant MRSA; test: Agar well diffusion; details: 40 ul of 1 mg/ml in DMSO per well
[4] = system: CNS incl. resistant and multiresistant MRSE; test: Agar well diffusion; details: 40 ul of 1 mg/ml in DMSO per well
Streptococcus: group B = test: Agar well diffusion; details: 40 ul of 1 mg/ml in DMSO per well
Streptococcus: group C = test: Agar well diffusion; details: 40 ul of 1 mg/ml in DMSO per well
Streptococcus: group G = test: Agar well diffusion; details: 40 ul of 1 mg/ml in DMSO per well
Streptococcus: group A = test: Agar well diffusion; details: 40 ul of 1 mg/ml in DMSO per well
L. monocytogenes = test: Agar well diffusion; details: 40 ul of 1 mg/ml in DMSO per well
S. pneumoniae = test: Agar well diffusion; details: 40 ul of 1 mg/ml in DMSO per well
[5] = system: E. coli and other Gram-negatives; test: Agar well diffusion
[6] = system: α-haemolytic Streptococci; test: Agar well diffusion; details: 40 ul of 1 mg/ml in DMSO per well
MRSA = test: Growth inhibition of clinical isolates; details: approximately 100 strains of MRSA, several with additional resistance markers

CC(C)CC(NC(=O)C(CCCN=C(N)N)NC(=O)OCc1ccccc1)C(=O)N[C@H](CNC(=O)/C=C/c1ccccc1)C(C)C (stereo in doubt) [Cp1, (2S)-2-[(N^α-Benzyloxycarbonyl-Arginyl-Leucyl)-Amino]-1-Trans-Cinnamoylamino-3-Methylbutane]
MIC Aspergillus niger ATCC 16404 [1]: 64 µg/mL (≈ 101 µM) | MIC Candida albicans ATCC 10231 [2]: 32 µg/ml | MIC (S.aureus): approximately 16 mg/L | MIC (GAS): approximately 16 mg/L | solubility in the presence of salts (Solubility): weak solubility | protective capacity for lethal streptococcal challenge (streptococcal challenge): strong protective capacity | time after which the symptoms were gone (labial herpes): 3 to 4 h | antibacterial effect [3]: + | antibacterial effect [4]: + | antibacterial effect (Streptococcus: group B): + | antibacterial effect (Streptococcus: group C): + | antibacterial effect (Streptococcus: group G): + | antibacterial effect (Streptococcus: group A): + | antibacterial effect (L. monocytogenes): + | antibacterial effect (S. pneumoniae): + | activity against gram-negative bacteria [5]: low or no activity | antibacterial effect ([5]; E. coli and other Gram-negatives, 40 ul of 1 mg/ml in DMSO per well): − | antibacterial effect [6]: − | growth inhibition of MRSA strains (MRSA): strongly inhibited in their growth
